In ChEMBL document CHEMBL1125108 (J Med Chem, 1990):

Legend:
Assay type in all cases: tissue-based
[1] = molecular target: D(1A) dopamine receptor (Rattus norvegicus, UniProt P18901); experiment: Binding affinity against Dopamine receptor D1 using […] in rat brain
[2] = molecular target: D(2) dopamine receptor (Rattus norvegicus, UniProt P61169); experiment: Binding affinity for Dopamine receptor D2 using [3H]spiperone in rat brain
[3] = molecular target: Muscarinic acetylcholine receptor; experiment: Binding affinity was determined against Muscarinic acetylcholine receptor using [3H]QNB as radioligand in rat brain.

D(1A) dopamine receptor, sequence (P18901 whole entry): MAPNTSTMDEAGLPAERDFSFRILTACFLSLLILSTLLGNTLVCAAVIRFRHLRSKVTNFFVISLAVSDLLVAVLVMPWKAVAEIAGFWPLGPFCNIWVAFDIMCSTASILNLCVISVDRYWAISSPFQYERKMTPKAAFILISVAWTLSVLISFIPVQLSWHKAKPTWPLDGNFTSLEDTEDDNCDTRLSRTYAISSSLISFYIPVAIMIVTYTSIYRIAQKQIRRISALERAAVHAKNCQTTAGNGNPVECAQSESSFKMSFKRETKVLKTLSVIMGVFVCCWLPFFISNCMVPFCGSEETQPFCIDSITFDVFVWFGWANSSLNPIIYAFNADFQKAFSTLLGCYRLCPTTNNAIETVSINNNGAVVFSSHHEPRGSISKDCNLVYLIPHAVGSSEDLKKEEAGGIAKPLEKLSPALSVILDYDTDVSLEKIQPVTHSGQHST
D(2) dopamine receptor, sequence (P61169 whole entry): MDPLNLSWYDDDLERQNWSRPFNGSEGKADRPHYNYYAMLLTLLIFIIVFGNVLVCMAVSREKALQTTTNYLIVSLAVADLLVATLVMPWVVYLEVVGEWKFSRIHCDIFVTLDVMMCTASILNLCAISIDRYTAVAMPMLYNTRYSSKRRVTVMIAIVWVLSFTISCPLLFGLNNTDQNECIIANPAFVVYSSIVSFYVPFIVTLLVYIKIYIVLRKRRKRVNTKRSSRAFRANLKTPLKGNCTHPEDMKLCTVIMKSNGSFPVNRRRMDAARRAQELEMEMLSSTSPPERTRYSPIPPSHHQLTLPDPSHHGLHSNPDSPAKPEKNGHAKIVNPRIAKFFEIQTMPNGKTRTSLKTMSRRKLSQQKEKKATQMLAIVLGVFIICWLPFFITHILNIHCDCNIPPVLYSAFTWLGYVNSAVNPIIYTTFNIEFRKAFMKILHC

Row | SMILES | IC50 [1] | IC50 [2] | IC50 [3]
1 | CC(C)=C1c2ccc(Cl)cc2C=C(N2CCN(C)CC2)c2ccccc21 | 443 nM | 5000 nM | 1750 nM
2 | C=C1c2ccc(Cl)cc2C=C(N2CCN(C)CC2)c2ccccc21 | 51 nM | 300 nM | 248 nM
3 | C=C1c2ccccc2C=C(N2CCN(C)CC2)c2cc(Cl)ccc21 | 8 nM | 27 nM | 330 nM
4 | CC(C)=C1c2ccccc2C=C(N2CCN(C)CC2)c2cc(Cl)ccc21 | 133 nM | > 10000 nM | 297 nM
5 | CN1CCN(C2=Nc3ccccc3Nc3ccccc32)CC1 |  | > 10000 nM | 
6 | CC(C)=C1c2ccccc2C=C(N2CCN(C)CC2)c2ccccc21 | 540 nM | 4750 nM | 415 nM
7 | C=C1c2ccccc2C=C(N2CCN(C)CC2)c2ccccc21 | 21 nM | 305 nM | 150 nM
